Laboratory results taken from paper PMC6355697, “Binding Specificity of Native Odorant-Binding Protein Isoforms Is Driven by Phosphorylation and O-N-Acetylglucosaminylation in the Pig Sus scrofa” (Frontiers in Endocrinology, 2019).
Where two headings read alike, the source gives them in different places.

How the values were obtained:
OBP-native-iso2 [1] = biological target: T1, OBP-native-iso2 (Sus scrofa, UniProt P81245); assay: Competitive fluorescence binding assay with AMA as probe; details: for IC50: OBP-native-iso2 2.5 μM saturated with 3.75 μM AMA, competitor 0 to 6 μM; for Kd: calculated dissociation constant from AMA competition
T1 construct: Proteins were gently extracted from RM of pre-pubertal males of S. scrofa; from tissue; host or cells: RM (respiratory mucosa) extract of pre-pubertal male pigs, purified by two rounds of anion-exchange HPLC
T1 sequence (P81245 1-157): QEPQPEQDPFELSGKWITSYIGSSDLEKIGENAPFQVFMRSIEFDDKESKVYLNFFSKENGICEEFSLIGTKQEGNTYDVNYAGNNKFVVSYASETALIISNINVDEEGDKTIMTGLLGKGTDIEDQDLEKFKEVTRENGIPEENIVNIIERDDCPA
Procedure: (§1) Androstenone (3-keto-5α, 16-androstene), androstenol (3α-hydroxy-5α-androst-16-ene), testosterone (17β-hydroxy-3-oxo-4-androstene), palmitic acid (hexadecanoic acid), myristic acid (tetradecanoic acid), and AMA (1-aminoanthracene) were purchased from Sigma-Aldrich. UV-visible spectra were recorded on a Cary-100 double beam spectrometer (Varian) with a cell of 0.5 cm path length. The protein concentration was calculated by UV-visible spectroscopy, by using the molar extinction coefficient of 11,740 M^−1cm^−1 for OBP (calculated by the software “ProtParam tool” at www.expasy.org) at the maximum wavelength of absorption (280 nm). Steady state fluorescence measurements were performed on a Fluoromax-3 (Jobin-Yvon) spectrofluorimeter using a micro quartz cell (0.5 cm light-path) with a reflecting window. 1-Aminoantracene (AMA) was used as a fluorescent probe. The experimental conditions and data treatment have been described previously ([17]). The dissociation constant (Kd-AMA) of the OBP-AMA complex was calculated from the binding curve by fitting the experimental data with the use of the computer program Origin 7.5 (OriginLab Corporation). The affinities of the five ligands were measured in a competitive binding assay with AMA as the fluorescent probe. AMA was dissolved in 100% ethanol to yield a 1 mM stock solution. For protein titration, aliquots of AMA were successively added to the protein at 1 or 2.5 μM in 50 mM Tris buffer (pH 7.8) and emission spectra were acquired after a 15 min equilibration period. Competitive binding experiments were then carried out with different protein and ligand concentrations. The spectra were recorded 15 min after the ligand addition, and competition was monitored by following the decrease in intensity of fluorescence associated with the band of AMA bound to the protein. The apparent Kd values of the ligand-protein complexes were calculated as described in Brimau et al. ([17]).
(§2) We measured the affinity of the four native OBP isoforms for the five selected ligands under the same experimental conditions that were used previously for recombinant OBP isoforms ([17]). The four isoforms were first titrated with the fluorescent probe, AMA. OBP-native-iso3 was collected in smaller quantities than the 3 other isoforms and was used at a 1 μM concentration instead of 2.5 μM and saturated with 2 μM AMA, instead of 3.75 μM AMA. […] Two classes of isoforms, -iso1 and -iso2, bound the two fatty acids and not the steroids.
(§3) Figure 6 Competitive binding assays of five selected ligands of biological relevance to native OBP isoforms from S. scrofa. (A) OBP-native-iso1; (B) OBP-native-iso2; (C) OBP-native-iso3; and (D) OBP-native-iso4. Proteins were used at 2.5 μM (A,B,D) or 1 μM (C) concentration and were saturated with 3.75 μM (A,B,D) or 2 μM (C) of the fluorescent probe 1-AMA. Competitors were added at increasing concentration from 0 to 6 μM (A,B) or to 15 μM (C,D).

OBP-native-iso4 [2] = biological target: T2, OBP-native-iso4 (Sus scrofa, UniProt P81245); assay: as above; details: for binding of ligand (in words) / Kd: OBP-native-iso4; for IC50: OBP-native-iso4 2.5 μM saturated with 3.75 μM AMA, competitor 0 to 15 μM; for Kd: calculated dissociation constant from AMA competition
T2 sequence (P81245 1-157): T1 sequence (P81245 1-157)
Procedure: as §1, §2, §3

OBP-native-iso1 [3] = biological target: T3, OBP-native-iso1 (Sus scrofa, UniProt P81245); assay: as above; details: for IC50: OBP-native-iso1 2.5 μM saturated with 3.75 μM AMA, competitor 0 to 6 μM; for Kd: calculated dissociation constant from AMA competition
T3 construct: Proteins were gently extracted from RM of pre-pubertal males of S. scrofa; from tissue; host or cells: RM (respiratory mucosa) extract of pre-pubertal male pigs, purified by two rounds of anion-exchange HPLC
T3 sequence (P81245 1-157): T1 sequence (P81245 1-157)
Procedure: as §1, §2, §3

OBP-native-iso3 [4] = biological target: T4, OBP-native-iso3 (Sus scrofa, UniProt P81245); assay: as above; details: for binding of ligand (in words) / Kd: OBP-native-iso3; for IC50: OBP-native-iso3 1 μM saturated with 2 μM AMA, competitor 0 to 15 μM; for Kd: calculated dissociation constant from AMA competition
T4 sequence (P81245 1-157): T1 sequence (P81245 1-157)
Procedure: as §1, §2, §3

OBP-native-iso2 [5] = biological target: T1, OBP-native-iso2; assay: Fluorescence titration with the probe AMA; type: binding; details: OBP-native-iso2 at 2.5 μM, 50 mM Tris buffer pH 7.8, estimated
Procedure: as §1, §2

OBP-native-iso4 [6] = biological target: T2, OBP-native-iso4; assay: Fluorescence titration with the probe AMA; type: binding; details: OBP-native-iso4 at 2.5 μM, 50 mM Tris buffer pH 7.8, estimated
Procedure: as §1, §2

OBP-native-iso1 [7] = biological target: T3, OBP-native-iso1; assay: Fluorescence titration with the probe AMA; type: binding; details: OBP-native-iso1 at 2.5 μM, 50 mM Tris buffer pH 7.8, estimated
Procedure: as §1, §2

OBP-native-iso3 [8] = biological target: T4, OBP-native-iso3; assay: Fluorescence titration with the probe AMA; type: binding; details: OBP-native-iso3 at 1 μM, 50 mM Tris buffer pH 7.8, estimated
Procedure: as §1, §2

OBP-Pichia-iso3 = system: OBP-Pichia-iso3; set-up: method as in PMID 20589419; details: OBP-Pichia-iso3, recombinant, phosphorylated only; cited from earlier work
OBP-native-iso4 [9] = assay: Competitive fluorescence binding assay with AMA as probe; set-up: species or system Sus scrofa; details: ratio of Ka values
Procedure: as §1, §2, §3

With `C[C@]12CC[C@H]3[C@@H](CCC4=CC(=O)CC[C@@]43C)[C@@H]1CC[C@@H]2O` [Testosterone, 17β-hydroxy-3-oxo-4-androstene, reference compound] the “binding of ligand (in words)” value (OBP-native-iso2 [1]; OBP-native-iso2) was “None of the four native isoforms bound”, the IC50 (OBP-native-iso2 [1]) was over 6000 nM and the “binding of ligand (in words)” value (OBP-native-iso4 [2]) was “None of the four native isoforms bound”. The IC50 (OBP-native-iso4 [2]) was over 6000 nM, the “binding of ligand (in words)” value (OBP-native-iso1 [3]; OBP-native-iso1) was “None of the four native isoforms bound” and the IC50 (OBP-native-iso1 [3]) was over 6000 nM. For the same molecule, the “binding of ligand (in words)” value (OBP-native-iso3 [4]) was “None of the four native isoforms bound” and the IC50 (OBP-native-iso3 [4]) was over 6000 nM.

Work on `Nc1cccc2cc3ccccc3cc12` [AMA, 1-aminoanthracene] yielded a Kd (OBP-native-iso2 [5]) of 230 ± 20 nM, a Kd (OBP-native-iso4 [6]) of 500 ± 20 nM and a Kd (OBP-native-iso1 [7]) of 370 ± 20 nM. The Kd (OBP-native-iso3 [8]) was 840 ± 80 nM.

Molecule `CCCCCCCCCCCCCC(=O)O` [Myristic acid, tetradecanoic acid] has an IC50 (OBP-native-iso2 [1]; read-out: IC50) of 1030 nM, a Kd (OBP-native-iso2 [1]; OBP-native-iso2) of 110 nM and an IC50 (OBP-native-iso4 [2]; read-out: IC50) of over 15000 nM. The IC50 (OBP-native-iso1 [3]; read-out: IC50) was 330 nM, the Kd (OBP-native-iso1 [3]; OBP-native-iso1) was 50 nM and the “binding of ligand (in words)” value (OBP-Pichia-iso3) was “to a lesser extent”.

In the case of `C[C@]12CCC(=O)C[C@@H]1CC[C@@H]1[C@@H]2CC[C@]2(C)C=CC[C@@H]12` [Androstenone, 3-keto-5α, 16-androstene], the IC50 (OBP-native-iso2 [1]; read-out: IC50) is reported as over 6000 nM, the “binding of ligand (in words)” value (OBP-native-iso4 [2]) is reported as “bind” and the IC50 (OBP-native-iso4 [2]; read-out: IC50) is reported as 1890 nM. For the same molecule, the Kd (OBP-native-iso4 [2]) was 220 nM, the IC50 (OBP-native-iso1 [3]; read-out: IC50) was over 6000 nM and the “binding of ligand (in words)” value (OBP-native-iso3 [4]) was “bind”. The IC50 (OBP-native-iso3 [4]; read-out: IC50) was 1280 nM and the Kd (OBP-native-iso3 [4]) was 230 nM.

With `C[C@]12CC[C@@H](O)C[C@@H]1CC[C@@H]1[C@@H]2CC[C@]2(C)C=CC[C@@H]12` [Androstenol, 3α-hydroxy-5α-androst-16-ene] the “Ka value, OBP-native-iso4 compared with OBP-native-iso3” value (OBP-native-iso4 [9]) was “three times greater”, the IC50 (OBP-native-iso2 [1]; read-out: IC50) was over 6000 nM and the “binding of ligand (in words)” value (OBP-native-iso4 [2]) was “bind”. The IC50 (OBP-native-iso4 [2]; read-out: IC50) was 1430 nM, the Kd (OBP-native-iso4 [2]) was 160 nM and the IC50 (OBP-native-iso1 [3]; read-out: IC50) was over 6000 nM. The “binding of ligand (in words)” value (OBP-native-iso3 [4]) was “bind”, the IC50 (OBP-native-iso3 [4]; read-out: IC50) was 2590 nM and the Kd (OBP-native-iso3 [4]) was 490 nM.

Molecule `CCCCCCCCCCCCCCCC(=O)O` [Palmitic acid, hexadecanoic acid] has an IC50 (OBP-native-iso2 [1]; read-out: IC50) of 1510 nM, a Kd (OBP-native-iso2 [1]; OBP-native-iso2) of 160 nM and an IC50 (OBP-native-iso4 [2]; read-out: IC50) of over 15000 nM. The IC50 (OBP-native-iso1 [3]; read-out: IC50) was 1030 nM, the Kd (OBP-native-iso1 [3]; OBP-native-iso1) was 160 nM and the “binding of ligand (in words)” value (OBP-Pichia-iso3) was “not able to bind”.
